Experimental data taken from the supplement of paper PMC10307832.

Tests used:
Test in all cases: relative viability (nuclei count vs DMSO), 5 days (fraction); higher = more cells survive
[1] = compound: COc1cc2/c(=N/c3ccc(Br)cc3F)nc[nH]c2cc1OCC1CCN(C)CC1 [Vandetanib] + NC(=O)Nc1cc(-c2cccc(F)c2)sc1C(=O)N[C@H]1CCCNC1 [AZD7762] (partner 0.2 µM)
How it was run: (§1)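 Values are medians from duplicate plates. Each reflects relative viability, defined as the nuclei count of treated wells over that of vehicle wells. Lung cancer cell lines in 1536-well plates were pin-tool dosed one day after seeding with one drug alone or with a fixed anchor-drug dose plus five library-drug doses (not always all listed) in √10 steps, then fixed, stained and imaged at 4× after 5 days.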

[2] = compound: C#Cc1cccc(Nc2ncnc3cc(OC)c(OCCCCCCC(=O)NO)cc23)c1 [CUDC-101] + CS(=O)(=O)CCNCc1ccc(-c2ccc3ncnc(Nc4ccc(OCc5cccc(F)c5)c(Cl)c4)c3c2)o1 [Lapatinib] (partner 2 µM)
How it was run: as §1

[3] = compound: C#Cc1cccc(Nc2ncnc3cc(OC)c(OCCCCCCC(=O)NO)cc23)c1 [CUDC-101] + Nc1nc2[nH]cc(CCc3ccc(C(=O)N[C@@H](CCC(=O)O)C(=O)O)cc3)c2c(=O)[nH]1 [Pemetrexed] (partner 0.2 µM)
How it was run: as §1

[4] = compound: C1=CC=C2C(=C1)N=C(S2)C(C#N)C3=NC(=NC=C3)NCCC4=CN=CC=C4 + Nc1nc2[nH]cc(CCc3ccc(C(=O)N[C@@H](CCC(=O)O)C(=O)O)cc3)c2c(=O)[nH]1 [Pemetrexed] (partner 0.2 µM)
How it was run: as §1

Cell Line	relative viability ([1]; first compound 0.02 µM)	relative viability ([1]; first compound 0.06325 µM)	relative viability ([1]; first compound 0.2 µM)	relative viability ([1]; first compound 0.6325 µM)	relative viability ([1]; first compound 2 µM)	relative viability ([2]; first compound 0.01 µM)	relative viability ([2]; first compound 0.03162 µM)	relative viability ([2]; first compound 0.1 µM)	relative viability ([2]; first compound 0.3162 µM)	relative viability ([2]; first compound 1 µM)	relative viability ([3]; first compound 0.01 µM)	relative viability ([3]; first compound 0.03162 µM)	relative viability ([3]; first compound 0.1 µM)	relative viability ([3]; first compound 0.3162 µM)	relative viability ([3]; first compound 1 µM)	relative viability ([4]; first compound 0.005 µM)	relative viability ([4]; first compound 0.01581 µM)	relative viability ([4]; first compound 0.05 µM)	relative viability ([4]; first compound 0.1581 µM)	relative viability ([4]; first compound 0.5 µM)
201T	0.675	0.62	0.626	0.588	0.614	1.03	1.02	0.943	1.08	0.872	0.281	0.387	0.368	0.356	0.29	0.348	0.337	0.349	0.313	0.357
A549	–	–	–	–	–	0.975	1.01	0.946	0.821	0.386	–	–	–	–	–	–	–	–	–	–
A-427	0.684	0.674	0.719	0.62	0.61	0.933	1.04	1	0.914	1.01	0.954	0.971	0.982	0.821	0.763	0.874	0.94	0.995	1.1	0.975
ABC-1	0.871	0.901	–	0.726	0.773	1.06	1.05	1.21	–	1.26	–	–	–	–	–	–	–	–	–	–
BEN	0.69	0.622	0.585	0.633	0.661	0.925	0.628	0.707	0.739	0.539	0.812	0.727	0.78	0.703	0.769	0.751	0.627	0.773	0.883	0.741
CAL-12T	0.676	0.611	0.631	0.643	0.574	0.796	0.603	0.763	0.64	0.567	1.45	1.13	1.19	1.14	1.18	0.575	1.19	1.11	1.43	0.88
COR-L23	–	–	–	–	–	1.02	1.02	0.889	1.1	0.449	0.184	0.196	0.2	0.186	0.175	0.211	0.207	0.187	0.206	0.17
COR-L 105	–	–	–	–	–	0.425	0.356	0.316	0.264	0.226	1.04	0.967	1.1	1.12	0.931	0.839	1.24	1.03	1.03	1.02
Calu-6	–	–	–	–	–	1.08	1.12	1.09	0.791	0.658	–	–	–	–	–	–	–	–	–	–
ChaGo-K-1	0.878	0.886	0.893	0.816	0.896	–	–	–	–	–	0.259	0.246	0.259	0.256	0.256	0.249	0.263	0.293	0.255	0.256
EBC-1	–	–	–	–	–	0.224	0.212	0.214	0.215	0.196	–	–	–	–	–	–	–	–	–	–
EKVX	0.693	0.692	0.611	0.694	0.547	0.255	0.199	0.22	0.203	0.169	0.395	0.435	0.442	0.373	0.35	0.398	0.382	0.39	0.459	0.417
EMC-BAC-2	1.08	1.08	1.12	1.11	0.973	0.836	0.88	0.909	0.974	0.485	0.464	0.399	0.46	0.394	0.354	0.488	0.442	0.414	0.477	0.429
EPLC-272H	0.23	0.428	0.244	0.201	0.189	1.13	0.987	1	0.392	0.482	0.345	0.316	0.428	0.387	0.235	–	0.255	0.317	0.325	0.326
H3255	0.898	0.812	0.824	0.636	0.377	0.244	0.248	0.24	0.248	0.174	0.62	0.543	0.408	0.449	0.304	0.568	0.558	0.532	0.622	0.584
HARA	0.262	0.448	0.396	0.18	0.312	0.739	0.789	0.739	0.71	0.453	0.253	0.237	–	0.243	0.176	0.271	0.205	0.259	0.283	0.305
HCC-15	1.29	1.04	1.18	1.33	1.15	0.857	0.908	0.831	0.845	0.698	0.212	0.244	0.226	0.217	0.198	0.215	0.23	0.223	0.228	0.227
HCC-44	0.982	1.04	1.11	1.03	1.04	0.923	1.07	0.947	0.979	0.812	0.629	0.657	0.71	0.645	0.693	0.723	0.677	0.668	0.648	0.675
HCC-78	0.591	0.669	0.596	0.645	0.609	0.882	0.92	0.808	0.701	0.631	0.876	0.942	0.921	0.912	0.862	0.793	0.886	0.92	0.92	0.784
HCC-366	0.205	0.317	0.284	0.243	0.286	1.07	1.06	1.07	0.755	0.459	0.163	0.157	0.137	0.177	0.201	0.177	0.146	0.145	0.165	0.164
HCC-827	0.211	0.204	0.165	0.126	0.124	0.206	0.181	0.178	0.174	0.218	0.237	0.241	0.163	0.137	0.138	0.238	0.239	0.25	0.264	0.259

Cell Line	relative viability ([1]; first compound 0.02 µM)	relative viability ([1]; first compound 0.06325 µM)	relative viability ([1]; first compound 0.2 µM)	relative viability ([1]; first compound 0.6325 µM)	relative viability ([1]; first compound 2 µM)	relative viability ([2]; first compound 0.01 µM)	relative viability ([2]; first compound 0.03162 µM)	relative viability ([2]; first compound 0.1 µM)	relative viability ([2]; first compound 0.3162 µM)	relative viability ([2]; first compound 1 µM)	relative viability ([3]; first compound 0.01 µM)	relative viability ([3]; first compound 0.03162 µM)	relative viability ([3]; first compound 0.1 µM)	relative viability ([3]; first compound 0.3162 µM)	relative viability ([3]; first compound 1 µM)	relative viability ([4]; first compound 0.005 µM)	relative viability ([4]; first compound 0.01581 µM)	relative viability ([4]; first compound 0.05 µM)	relative viability ([4]; first compound 0.1581 µM)	relative viability ([4]; first compound 0.5 µM)
HOP-62	0.661	0.536	0.577	0.412	0.485	1.03	0.909	1.05	0.768	0.821	0.295	0.355	0.346	0.349	0.311	0.344	0.337	0.33	0.345	0.351
IA-LM	–	–	–	–	–	0.999	0.666	0.605	0.653	0.305	–	–	–	–	–	–	–	–	–	–
LCLC-103H	0.755	0.783	0.758	0.772	0.82	–	–	–	–	–	0.472	0.537	0.486	0.456	0.429	0.497	0.502	0.458	0.461	0.468
NCI-H441	1.12	0.945	1.02	1.31	1.34	–	–	–	–	–	0.248	0.261	0.263	0.274	0.228	0.317	0.279	0.238	0.276	0.265
NCI-H520	–	–	–	–	–	0.94	–	0.879	0.76	0.323	0.711	0.755	0.774	0.608	0.342	0.528	0.652	0.784	0.834	0.818
NCI-H522	0.753	0.876	0.738	0.92	0.699	–	–	–	–	–	0.87	0.802	1.05	0.963	0.765	1.22	0.698	1.01	0.807	1.03
NCI-H661	–	–	–	–	–	0.603	0.449	0.525	0.594	0.506	0.956	0.903	0.953	0.968	0.631	0.84	0.916	0.85	0.904	0.876
NCI-H727	0.482	0.489	0.651	0.562	0.635	0.825	0.531	0.844	0.801	0.678	–	–	–	–	–	–	–	–	–	–
NCI-H1299	–	–	–	–	–	0.97	0.917	0.883	0.973	0.857	–	–	–	–	–	–	–	–	–	–
NCI-H1563	–	–	–	–	–	0.846	0.814	1.17	1.13	0.877	0.78	0.758	0.844	0.773	0.512	0.751	0.728	0.696	0.779	0.764
NCI-H1648	0.643	0.601	0.676	0.638	0.625	–	–	–	–	–	0.826	0.744	0.805	0.741	0.535	–	0.682	–	0.673	0.652
NCI-H1650	–	–	–	–	–	0.833	0.72	0.963	0.772	0.48	0.381	0.297	0.389	0.397	0.351	0.382	0.385	0.395	0.353	0.27
NCI-H1703	0.129	–	0.159	0.132	0.134	1.31	1.03	1.07	1.18	0.765	–	–	–	–	–	–	–	–	–	–
NCI-H2009	–	–	–	–	–	0.924	1	1.07	0.925	0.87	1.05	1.02	1.02	0.994	0.997	0.992	1.05	0.98	1.09	1.02
NCI-H2023	–	–	–	–	–	0.991	0.813	1.04	0.936	0.402	0.255	0.298	0.201	0.233	0.183	0.211	0.26	0.205	0.264	0.213
NCI-H2228	–	–	–	–	–	1.06	1.49	1.12	0.977	0.412	0.352	0.359	0.333	0.392	0.346	0.302	0.324	0.305	0.379	0.259
NCI-H2342	0.483	0.479	0.707	0.537	0.365	–	–	–	–	–	0.842	0.757	0.76	0.819	0.742	0.823	0.716	0.697	0.85	0.81
SK-LU-1	–	–	–	–	–	1.01	0.922	0.712	0.844	0.446	0.948	1.12	0.948	0.965	0.947	0.81	1.06	0.956	1.12	0.89
SK-MES-1	–	–	–	–	–	0.466	0.462	0.451	0.461	0.388	0.896	0.946	0.922	0.972	0.724	0.799	0.923	0.823	1.04	0.644
SW 900	0.6	0.607	–	0.598	0.688	–	–	–	–	–	0.502	0.429	0.452	0.454	0.448	0.39	0.471	0.484	0.521	0.482
SW 1573	–	–	–	–	–	1.05	1.15	1.23	1.2	0.813	0.86	0.97	1.08	0.96	0.459	0.598	0.782	0.702	0.9	0.629
